Test results: US10080779B2, “Method for increasing the expression of anti-microbial peptides by keratinocytes comprising administering a composition comprising IL-17, TNF-alpha and OSM” (Universite D'Angers, priority 2004, dated 2018)

Key:
[1] = test system: reconstituted human epidermis (RHE); test: Reconstituted human epidermis model, histology and immunohistochemistry (OSM); type: cell-based
Procedure: For histological and immunohistochemical studies, RHE, grown for 12 days at the air-medium interface, were purchased from SkinEthic Laboratories (Nice, France). […] As recommended, RHE were grown for 1 day in SkinEthic growth medium prior to stimulation in the absence or presence of OSM for 4 days. They were then fixed in a balanced 10% formalin solution and embedded in paraffin. Four micron vertical sections were stained with heamatoxylin/eosin or with specific Ab and peroxidase-conjugated Antibodies, and counterstained with haematoxylin according to standard protocols (Rosdy, Bertino et al. 1997). Anti-K10 keratin and anti-filaggrin monoclonal Antibodies were from Lab Vision Corporation (Fremont, Calif., USA).

NHEK [2] = test: S100 proteins expression in NHEK (Western blot); type: cell-based, human; conditions: 10 ng/ml OSM, day 2 and day 4
Procedure: […] Cell lysis was performed with 50 mM Tris HCl pH 7.4, 150 mM NaCl, 1 mM EDTA, 1% Triton, 1% sodium deoxycholate, 0.1% SDS, 1 mM PMSF, 1 mM sodium orthovanadate, 1% protease inhibitors. S100A7, S100A8 and S100A9 were detected by immunochemistry as described above. Ponceau red staining was used to control loading homogeneity.

STAT3 = STAT3 phosphorylation in NHEK (Western blot); type: cell-based, human
Procedure: (§1) For STAT3 and MAPK phosphorylation, NHEK were stimulated for 15 min in the presence of the indicated cytokine. Cells were lysed in SDS sample buffer (62.5 mM Tris-HCl pH 6.8, 2% SDS, 10% glycerol, 50 mM DTT, 0.1% bromophenol blue), sonicated and then submitted to SDS-PAGE and transferred onto an Immobilon membrane. The membranes were subsequently incubated overnight with the primary antibody, before being incubated with the appropriate peroxidase-labelled secondary antibody for 60 min. The reaction was visualized by chemiluminescence according to the manufacturer's instructions. Membranes were stripped in 0.1 M glycine pH 2.8 for 2 h and neutralized in 1 M Tris-HCl pH 7.6 before reblotting. For neutralizing experiments, NHEK were incubated with the appropriate antibodies for 2 h before stimulation.

NHEK [3] = test: cDNA macroarrays analysis of 36 cytokines on 154 genes in NHEK; type: cell-based, human; conditions: 10 ng/ml, 24 h
Procedure: The comparison of the effects of 36 different cytokines on the expression of 154 genes of potential interest for skin physiology was performed using home-made cDNA macroarrays analysis. After cytokine stimulation, total RNA was extracted using TRIzoI® Reagent (Invitrogen life Technologies) and conventional 33P-cDNA target synthesis and hybridization were performed (Boniface et al, 2007). Genes were considered regulated if expression levels differed more than 3-fold relative to untreated control and 3-fold relative to mean background noise.

RHE = test: KDM mRNA in reconstituted human epidermis (RT-PCR); type: cell-based; conditions: 24 h
Procedure: Normal human epidermal keratinocytes (NHEK) were obtained as previously described, from surgical samples of healthy breast skin (Boniface et al, 2005). NHEK were cultured to 80% of confluence allowing the expression of a large panel of keratinocyte differentiation markers, and then starved for 24 h in Keratinocyte SFM containing 0.03 mM Ca^2+ (Invitrogen Life Technologies, Cergy Pontoise, France) before stimulation. Confluent differentiated cells were stimulated with or without recombinant IL-17A, OSM, TNFα, IL-22 and IL-1α alone at maximum effective concentrations (reported previously around 10 ng/ml (Boniface et al, 2005 and Boniface et al, 2007)) or in combination (R&D systems Europe, Lille, France) during 2 h to 72 h for mRNA quantification. RHE were generated on polycarbonate culture inserts, from surgical samples of paediatric foreskins as previously described (Guenou et al., 2009). RHE were stimulated with or without recombinant IL-17A, OSM, TNFα, IL-22 and IL-1α alone or in combination, with or without a Janus protein Tyrosine Kinases (JAKs) inhibitor 10 μM (Calbiochem, 420099), during 24 h for mRNA quantification or during 72 h for immunohistological analysis.
NHEK, RHE and murine skin total RNA were isolated using NucleoSpin® RNA II kit (Macherey-Nagel, Hoerdt, France) and reverse-transcribed with SuperScript® II Reverse Transcriptase (Invitrogen Life Technologies) according to the manufacturer's instructions. Quantitative real time PCR was carried out using the LightCycler-FastStart DNA Master SYBR® Green I kit on LightCycler 480 (Roche Diagnostics, Meylan, France). The reaction components were 1×DNA Master Mix, and 0.5 μM of HPLC purified sense and anti-sense oligonucleotides purchased from Eurogentec (Eurogentec France, Angers, France), designed using Primer3 software. The stability of the housekeeping gene expression has been assessed by using GeNorm algorithm. […] Thus samples were normalized to G3PDH housekeeping gene and reported according to the ΔΔCT method as RNA fold increase: 2^ΔΔCT=2^ΔCT sample−ΔCT reference.

NHEK [4] = test: RT-real time PCR of S100 mRNA in cytokine-stimulated NHEK; type: cell-based, human
Procedure: Quantitative real time PCR was carried out using the LightCycler-FastStart DNA Master^PLUS SYBR Green I kit (Roche, Mannheim, Germany). The reaction components were 1× FastStart DNA Master^PLUS SYBR Green I and 0.5 μM of forward and reverse primers for S100A7 (forward 5′-[…]-3′ (SEQ ID No: 9) and reverse 5′-[…]-3′ (SEQ ID No: 10)), S100A8 (Pattyn, Speleman et al. 2003), S100A9 (forward 5′-[…]-3′ (SEQ ID No: 11) and reverse 5′-[…]-3′ (SEQ ID No: 12)), hBD2/4 (forward 5′-[…]-3′ (SEQ ID No: 13) and reverse 5′-[…]-3′ (SEQ ID No: 14)), KRT10 (forward 5′-[…]-3′ (SEQ ID No: 15) and reverse 5′-[…]-3′ (SEQ ID No: 16)), and hydroxymethyl-bilane synthase (HMBS) as a housekeeping gene (Vandesompele, De Preter et al. 2002). After cDNA fluorescent quantification using propidium iodide, 250 ng, 25 ng and 2.5 ng of cDNA were added as PCR template in the LightCycler glass capillaries. The cycling conditions comprised a 10 min polymerase activation at 95° C. and 50 cycles at 95° C. for 10 s, 64° C. for 5 s and 72° C. for 18 s with a single fluorescence measurement. […] A mathematical model was used to determine the relative quantification of target genes compared to HMBS reference gene (Pfaffl 2001).

MAP kinase (ERK1/2) = test: MAP kinase phosphorylation in NHEK (Western blot); type: cell-based, human; conditions: NHEK stimulated with OSM
Procedure: as §1

**Q.** How did the “Hyperplasia / overall thickness of RHE” value ([1]; 10 ng/ml OSM, 4 days) turn out when “OSM: human recombinant oncostatin M, cytokine of the IL-6 family” was run?
**A.** The value was “triggered the hyperplasia of the keratinocytes layers”.

**Q.** What about the Ki67 expression ([1]; RHE treated with OSM) of the same substance?
**A.** The Ki67 expression was “not induced”.

**Q.** And the “Filaggrin and keratin 10 expression (immunohistochemistry)” value ([1]; RHE, 10 ng/ml OSM, 4 days)?
**A.** The value was “decrease of filaggrin and keratin 10 expression”.

**Q.** And the “S100A7 protein (immunohistochemistry)” value ([1]; RHE, 10 ng/ml OSM, 4 days)?
**A.** The value was “S100A7 protein up-regulation”.

**Q.** And the “S100A7, S100A8, S100A9 protein expression” value (NHEK [2])?
**A.** Its value is “increased expression of studied proteins”.

**Q.** What about the “STAT3 tyrosine phosphorylation (P-STAT3)” value (STAT3; NHEK stimulated 15 min with the cytokine) of the same substance?
**A.** Its value is “strong induction of tyrosine phosphorylation”.

**Q.** What about the “OSM concentration down to which plateau P-STAT3 level is still present” value (STAT3; NHEK, 15 min) of the same substance?
**A.** The value was no less than 3 ng/mL.

**Q.** What about the “Number of genes (of 154) whose expression is modified with at least a three fold increase or decrease” value (NHEK [3]) of the same substance?
**A.** Its value is “at least five genes”.

**Q.** What about the “Expression of KDM mRNA (CK10, CK1, LOR, FLG)” value (RHE) of the same substance?
**A.** Its value is “most active cytokines”.

**Q.** What about the “S100A7 mRNA expression” value (RHE) of the same substance?
**A.** Its value is “strongly induced”.

**Q.** What about the “Time at which S100A7 mRNA increase starts” value (NHEK [4]; 10 ng/ml OSM) of the same substance?
**A.** The value was 12 h.

**Q.** And the “psoriasin/S100A7 mRNA induction above the control value” (NHEK [4]; 10 ng/ml OSM, 96 h)?
**A.** The value was “about 290 folds”.

**Q.** And the “OSM concentration at which plateau of S100A7 mRNA is reached” value (NHEK [4]; 48-h treatment)?
**A.** Its value is 6.3 ng/mL.

**Q.** What about the “psoriasin/S100A7 mRNA increase above control at plateau” value (NHEK [4]; 48-h treatment, 6.3 ng/ml OSM) of the same substance?
**A.** Its value is “fifty fold increase”.

**Q.** And the MAP kinase phosphorylation (MAP kinase (ERK1/2))?
**A.** Its MAP kinase phosphorylation is “quickly increased the MAP kinase phosphorylation”.
